This is an account of results in patent publication US20050192264A1, “Slow release steroid composition” (priority 2004, published 2005).

Data set [1] can be described thus: Saline saturated with TA (filter validation stock). It counts as physicochemical. How it is done: Solutions at 1% and 10% of saturation were prepared from a stock of saline saturated with TA (15 μg/mL). The solutions were filtered through a syringe filter and aliquots (200 μL) of the filtrate were collected. […] Consequently, an 800 μL prefiltration volume (see dissolution method above) was assumed sufficient to ensure that the filtrate concentration was representative of the dissolved TA concentration in the dissolution vessel.

Data set [2] is described as follows: Equilibrium solubility of triamcinolone acetonide in various media (HPLC). It counts as physicochemical. The conditions noted are these: thermodynamic from solid, read-out: Triamcinolone acetonide conc. (equilibrium solubility). The text has this: An HPLC assay method was developed for TA. This was used to determine the equilibrium solubility for TA in various media. It was considered that a solution of acetonitrile may be advantageous for the maintenance of sink conditions, wherein a large surplus of solvent/absorbant/carrier capacity is maintained.

Data set [3] can be described thus: Flow-through dissolution of TA samples in 20% methanol in water. The settings on record: solvent solution 20% methanol in water. It counts as physicochemical. How it is done: Samples were prepared by dispensing 10 mg of sample into 10 mL of a balanced salt solution comprising 1% Tween 80. The sample in solution was then subjected to vigorous shaking and a number of rapid expulsions through a 22 gauge needle. 2 mL of this suspension was then filtered through a […] Durapore membrane filter which retained essentially all of the particles. The filter is then rinsed with 2 mL water.
This method of sample preparation avoids the problem of particles formed of large agglomerations of crystals which appear to dissolve as large crystals and therefore bias results.
Dissolution was performed using a flow through system that pumps a degassed solvent solution of 20% methanol in water through the dissolution chamber at around 11 mL per minute. […] The combination of flow rate and solvent solution dissolves the TA crystals at a rate that enables a flow-through cell to record absorbance values in the acceptable range for virtually all of the 30 minute run time and for the experiment to be completed in a reasonable period. […]
Approximately 2 mg of sample was prepared on a filter as outlined above. […] The absorbance was recorded on a chart recorder with 2 absorbance units causing 100% pen deflection.
Dissolution studies were carried out for a period of 30 minutes with a flow rate of 11 mL per minute. Average absorbance values over 2 minute periods were calculated. […]

The conditions of data set [4]: cited from earlier work.
Data set [5] relates to clinically significant macular edema. The settings on record: intravitreal injection of the usual dose (4 mg); cited from earlier work.

Converted amounts (≈) assume the structure as drawn. Where two headings read alike, the source gives them in different places.

For `CC1(C)O[C@@H]2CC3C4CCC5=CC(=O)C=CC5(C)[C@@]4(F)C(O)CC3(C)C2(C(=O)CO)O1` (stereo partly shown) [triamcinolone acetonide, 9-fluoro-11,21-dihydroxy-16,17-[1-methylethylidinebis(oxy)]pregna-1,4-diene-3,20-dione], in data set [1], the “concentration of saline saturated with TA” value came out at 15000 ng/mL. For the same molecule, the solubility thermodynamic in data set [2] (5% Acetonide, aqueous with cosolvent or surfactant or cyclodextrin) turned out to be 5.2 µg/mL (≈ 12 µM); in data set [2] (10% Acetonide, aqueous with cosolvent or surfactant or cyclodextrin), 9.1 µg/mL (≈ 20.9 µM); in data set [2] (30% Acetonide, aqueous with cosolvent or surfactant or cyclodextrin) it was 128 µg/mL (≈ 295 µM); in data set [2] (distilled water, water), 8.8 µg/mL (≈ 20.3 µM); in data set [2] (normal saline, saline or isotonic), 8.2 µg/mL (≈ 18.9 µM). In data set [3], the “solubility of TA in the solvent solution relative to TA in water alone” value was 2-3 times. The “persistence at measurable concentrations in the vitreous humour” value in data set [4] (patients who have not undergone vitrectomy, assuming five half-lives) is 93 ± 28 days. The mean elimination half-life in data set [4] (single intravitreal injection, nonvitrectomized patients) is 18.6 days. Also, the “time after which beneficial effects are diminished” value in data set [5] was “approximately three”.
